Measured values from ChEMBL document CHEMBL5316283, “Discovery of High-Affinity Small-Molecule Binders of the Epigenetic Reader YEATS4” (J Med Chem, 2023).

Tests used:
[1] = target: Voltage-gated inwardly rectifying potassium channel KCNH2 (Homo sapiens, UniProt Q12809); assay: Inhibition of hERG assessed as inhibition constant by patch-clamp assay; type: toxicity
[2] = target: T1, YEATS domain-containing protein 4 (Homo sapiens, UniProt O95619); assay: Binding affinity to human his-tagged recombinant YEATS4 expressed in Escherichia coli assessed as inhibition constant using biotin tagged lysine 27-crotonylated histone H3 peptide as substrate preincubated for 20 mins followed by substrate addition measured after 30 mins by FRET analysis
T1 sequence (O95619 whole entry, the tested form may be a part): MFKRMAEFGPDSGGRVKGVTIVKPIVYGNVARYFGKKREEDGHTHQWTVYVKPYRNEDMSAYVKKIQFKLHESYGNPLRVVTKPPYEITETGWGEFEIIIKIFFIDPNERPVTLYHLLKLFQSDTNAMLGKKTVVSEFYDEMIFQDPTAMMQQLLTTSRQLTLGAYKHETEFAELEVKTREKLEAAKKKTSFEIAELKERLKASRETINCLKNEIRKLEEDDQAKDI

Homo sapiens [3] = species: Homo sapiens; assay: Selectivity ratio of Ki for human recombinant YEATS1 to Ki for human recombinant YEATS4
[4] = Cytotoxicity against human THLE cells assessed as inhibition of cell growth by CellTiter-Glo assay; type: toxicity, cell-based
Homo sapiens [5] = species: Homo sapiens; assay: Selectivity ratio of Ki for human recombinant YEATS3 to Ki for human recombinant YEATS4
[6] = Apparent permeability in dog RRCK cells; type: ADME, cell-based, Canis lupus familiaris, MDCKII-LE; conditions: MDCK
[7] = Intrinsic clearance in human hepatocytes assessed per million cells; type: ADME, cell-based, Hepatocyte; conditions: read-out: CLH
[8] = Lipophilicity, logD of the compound by shake flask method; type: physicochemical; conditions: octanol/water
Homo sapiens [9] = species: Homo sapiens; assay: Selectivity ratio of Ki for human recombinant YEATS2 to Ki for human recombinant YEATS4
[10] = Half life in mouse at 100 mg/kg, po; type: ADME, organism-based; conditions: in vivo
[11] = target: T1, YEATS domain-containing protein 4; assay: Binding affinity to YEATS4 (unknown origin) assessed as change in enthalpy by isothermal calorimetric analysis
[12] = Cytotoxicity against human Bone marrow cell assessed as reduction in cell viability measured after 7 days; type: toxicity, cell-based; conditions: bone marrow cells
[13] = target: T1, YEATS domain-containing protein 4; assay: Binding affinity to YEATS4 (unknown origin) assessed as change in entropy by isothermal calorimetric analysis
[14] = AUC in mouse at 100 mg/kg, po; type: ADME, organism-based; parameters: dose 100 mg/kg, route po; conditions: in vivo
[15] = Tmax in mouse at 100 mg/kg, po; type: ADME, organism-based; conditions: in vivo
[16] = target: T1, YEATS domain-containing protein 4; assay: Binding affinity to YEATS4 (unknown origin) assessed as dissociation constant by isothermal calorimetric analysis
[17] = target: T1, YEATS domain-containing protein 4; assay: Inhibition of N-terminal nanoLuc-tagged YEATS4 in HEK293T cells co-transfected with C-terminal halo-tagged histone 3.3 incubated for 24 hrs in presence of SAHA by NanoBRET assay; type: cell-based
Protein AF-9 = target: T2, Protein AF-9 (Homo sapiens, UniProt P42568); assay: Inhibition of N-terminal nanoLuc-tagged YEATS3 in HEK293T cells co-transfected with C-terminal halo-tagged histone 3.3 incubated for 24 hrs in presence of SAHA by NanoBRET assay; type: cell-based
T2 sequence (P42568 whole entry): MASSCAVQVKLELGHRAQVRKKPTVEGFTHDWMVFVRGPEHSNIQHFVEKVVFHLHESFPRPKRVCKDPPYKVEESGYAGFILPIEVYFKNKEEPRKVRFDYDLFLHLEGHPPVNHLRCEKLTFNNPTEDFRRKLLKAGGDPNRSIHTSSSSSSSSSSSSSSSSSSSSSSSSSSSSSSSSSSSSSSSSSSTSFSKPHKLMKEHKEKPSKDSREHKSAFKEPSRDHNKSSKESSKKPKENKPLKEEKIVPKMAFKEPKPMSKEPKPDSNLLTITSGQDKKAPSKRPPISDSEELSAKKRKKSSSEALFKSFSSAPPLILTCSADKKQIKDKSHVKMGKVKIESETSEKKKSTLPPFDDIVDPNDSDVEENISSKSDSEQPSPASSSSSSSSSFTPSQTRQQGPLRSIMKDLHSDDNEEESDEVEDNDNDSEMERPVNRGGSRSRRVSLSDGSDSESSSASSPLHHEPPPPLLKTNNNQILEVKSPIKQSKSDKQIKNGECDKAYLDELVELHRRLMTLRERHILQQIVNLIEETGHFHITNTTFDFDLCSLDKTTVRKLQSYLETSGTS

[18] = Cmax in mouse at 100 mg/kg, po; type: ADME, organism-based; parameters: dose 100 mg/kg, route po; conditions: in vivo
[19] = target: T1, YEATS domain-containing protein 4; assay: Binding affinity to C-terminal biotin-tagged YEATS4 (unknown origin) by SPR analysis
[20] = Half life in rat at 3 mg/kg, po; type: ADME, organism-based; conditions: in vivo
[21] = Volume of distribution at steady state in mouse at 1 mg/kg, iv; type: ADME, organism-based; conditions: in vivo, read-out: Vdss
[22] = Cmax in mouse at 3 mg/kg, po; type: ADME, organism-based; parameters: dose 3 mg/kg, route po; conditions: in vivo
[23] = Half life in mouse at 3 mg/kg, po; type: ADME, organism-based; conditions: in vivo
[24] = Tmax in rat at 3 mg/kg, po; type: ADME, organism-based; conditions: in vivo
[25] = AUC in mouse at 3 mg/kg, po; type: ADME, organism-based; parameters: dose 3 mg/kg, route po; conditions: in vivo
[26] = Cmax in rat at 3 mg/kg, po; type: ADME, organism-based; parameters: dose 3 mg/kg, route po; conditions: in vivo
[27] = Volume of distribution at steady state in rat at 1 mg/kg, iv; type: ADME, organism-based; conditions: in vivo, read-out: Vdss
[28] = AUC in rat at 3 mg/kg, po; type: ADME, organism-based; parameters: dose 3 mg/kg, route po; conditions: in vivo
[29] = Oral bioavailability in rat at 3 mg/kg; type: ADME, organism-based; conditions: in vivo
[30] = Tmax in mouse at 3 mg/kg, po; type: ADME, organism-based; conditions: in vivo
[31] = Oral bioavailability in mouse at 3 mg/kg; type: ADME, organism-based; conditions: in vivo

Chain of Voltage-gated inwardly rectifying potassium channel KCNH2 (Q12809 whole entry, the tested form may be a part): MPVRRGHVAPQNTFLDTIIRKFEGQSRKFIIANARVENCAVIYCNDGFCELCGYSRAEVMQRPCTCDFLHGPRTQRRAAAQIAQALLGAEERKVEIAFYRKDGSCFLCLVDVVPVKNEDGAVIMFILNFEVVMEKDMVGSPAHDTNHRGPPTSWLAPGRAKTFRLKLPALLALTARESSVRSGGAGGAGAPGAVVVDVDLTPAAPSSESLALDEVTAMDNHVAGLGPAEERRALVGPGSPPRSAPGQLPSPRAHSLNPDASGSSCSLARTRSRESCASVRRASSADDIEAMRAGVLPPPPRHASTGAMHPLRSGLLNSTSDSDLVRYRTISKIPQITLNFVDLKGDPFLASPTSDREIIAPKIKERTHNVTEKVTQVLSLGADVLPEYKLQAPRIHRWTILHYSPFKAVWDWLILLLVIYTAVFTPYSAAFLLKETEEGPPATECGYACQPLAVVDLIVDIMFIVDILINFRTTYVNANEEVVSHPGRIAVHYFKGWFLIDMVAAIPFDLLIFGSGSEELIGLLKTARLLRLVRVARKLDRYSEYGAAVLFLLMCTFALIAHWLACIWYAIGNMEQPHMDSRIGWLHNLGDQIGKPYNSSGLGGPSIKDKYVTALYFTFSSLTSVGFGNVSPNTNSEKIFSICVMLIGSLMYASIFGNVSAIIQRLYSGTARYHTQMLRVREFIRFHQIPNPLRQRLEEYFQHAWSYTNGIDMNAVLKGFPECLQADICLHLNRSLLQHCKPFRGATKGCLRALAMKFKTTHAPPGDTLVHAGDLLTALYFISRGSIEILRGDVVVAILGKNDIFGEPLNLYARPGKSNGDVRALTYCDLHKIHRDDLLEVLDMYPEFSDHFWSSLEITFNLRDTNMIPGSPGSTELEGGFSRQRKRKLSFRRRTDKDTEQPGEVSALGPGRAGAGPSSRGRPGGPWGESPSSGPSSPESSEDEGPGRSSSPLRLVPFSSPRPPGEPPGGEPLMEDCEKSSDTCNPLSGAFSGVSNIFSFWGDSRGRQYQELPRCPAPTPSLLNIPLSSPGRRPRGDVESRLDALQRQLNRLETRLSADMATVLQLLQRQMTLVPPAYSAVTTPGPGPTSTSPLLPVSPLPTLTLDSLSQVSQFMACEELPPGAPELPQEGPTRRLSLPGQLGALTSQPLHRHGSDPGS

Row | SMILES | Ki [1] [nM] | Ki [2] [nM] | Ratio Ki (Homo sapiens [3]) | IC50 [4] [nM] | Ratio Ki (Homo sapiens [5]) | Papp [6] [×10⁻⁶ cm/s] | hepatocyte CLint [7] [µL/min/1e6 cells] | logD [8] | Ratio Ki (Homo sapiens [9]) | IC50 at 7 days [12] [nM] | Kd [16] [nM] | IC50 [17] [nM] | Kd [19] [nM] | further results
1 | CCNC(=O)c1ccc2c(C3CCN(CC4(O)CCCCC4)CC3)c(-c3cccn(C)c3=O)nn2c1 | 36100 | 69 | 19 | > 300000 | 15 | 0.006 | < 1.8 | 0.09 | 4 | – | – | – | – | –
2 | CCNC(=O)c1ccc2c([C@H]3CCN(CC4(O)CCCCC4)C[C@@H]3C)c(C)nn2c1 | 4640 | 33 | 15 | > 300000 | 14 | 0.26 | 4.1 | 2.5 | 10 | > 50 | 52.7 | 170 | 340 | half-life [10]: 1.2 h; deltaH [11]: -15.1 kcal/mol; deltaH [13]: -17.4 cal/mol.K; AUC [14]: 412 ng·h/mL; Tmax [15]: 0.5 h; IC50 (Protein AF-9): 2980 nM; Cmax [18]: 9140 ng/mL
3 | COC1(CN2CC[C@H](c3c(C)nn4cc(C(=O)NCC5CC5)ccc34)[C@@H](C)C2)CCOCC1 | 16600 | 57 | 213 | > 300000 | 160 | 0.248 | 16.4 | 2.8 | 49 | – | – | – | – | –
4 | CCNC(=O)c1ccc2c([C@H]3CCN(CC4(O)CCOCC4)C[C@@H]3C)c(C)nn2c1 | 66600 | 37 | 35 | > 300000 | 27 | 0.093 | < 1.8 | 1.6 | 15 | > 50 | 30 | 300 | – | deltaH [11]: 13.3 kcal/mol; deltaH [13]: -11.1 cal/mol.K
5 | CCNC(=O)c1ccc2c(c1)[nH]c(=O)n2C1CCN(CC2(O)CCCCC2)CC1 | 40200 | 284 | 8 | > 300000 | 7 | 0.021 | 3.2 | 1.7 | 14 | – | – | – | – | –
6 | CCNC(=O)c1ccc2c(C3CCN(CC4(O)C5CC6CC(C5)CC4C6)CC3)c(C)nn2c1 (configuration not stated) | 3430 | 21 | 19 | 123000 | 25 | 0.331 | 33.7 | 3.2 | 7 | 22 | 53 | – | 103 | IC50 ([17]; hek293t): 200 nM
7 | CCNC(=O)c1ccc2c(c1)nc(C)n2C1CCN(CC2(O)CCCCC2)CC1 | 28900 | 141 | 19 | > 300000 | 16 | 0.108 | 2.4 | 1.9 | 11 | – | – | – | – | –
8 | CCNC(=O)c1ccc2c(c1)nc(-c1cccn(C)c1=O)n2[C@H]1CCN(CC2(O)CCCCC2)C[C@@H]1C | > 100000 | 33 | 5 | > 300000 | 4 | 0.004 | < 1.8 | 1.7 | 2 | – | – | – | – | –
9 | CCNC(=O)c1ccc2c(c1)nc(C)n2[C@H]1CCN(CC2(O)CCCCC2)C[C@@H]1C | 22300 | 63 | 16 | > 300000 | 12 | 0.119 | 5.9 | 2.4 | 17 | > 100 | 80 | 290 | 530 | –
10 | Cc1nn2cc(C(=O)NCC3CC3)ccc2c1[C@H]1CCN(CC2(O)CCOCC2)C[C@@H]1C | 7380 | 43 | 133 | 269000 | 106 | 0.154 | < 1.8 | 2 | 16 | – | – | – | – | –
11 | CCNC(=O)c1ccc2c(C3CCN(CC4(O)CCCCC4)CC3)c(C)nn2c1 | 4640 | 56 | 20 | > 300000 | 23 | 0.246 | 3.2 | 2 | 16 | – | – | – | – | –
12 | CCNC(=O)c1ccc2c(c1)nc(C(F)F)n2[C@H]1CCN(CC2(O)CCCCC2)C[C@@H]1C | 35400 | 59 | 19 | > 300000 | 14 | 0.271 | 12.8 | 3.1 | 17 | > 50 | 45 | 730 | 297 | half-life [20]: 1.4 h; half-life [10]: 1.2 h; Vd [21]: 7.8 L/kg; Cmax [22]: 1000 ng/mL; half-life [23]: 4.9 h; Tmax [24]: 0.4 h; AUC [25]: 2150 ng·min/mL; AUC [14]: 675 ng·h/mL; Cmax [26]: 487 ng/mL; Vd [27]: 2.6 L/kg; Tmax [15]: 0.8 h; AUC [28]: 1150 ng·min/mL; Cmax [18]: 14000 ng/mL; F [29]: 46%; Tmax [30]: 0.3 h; F [31]: 68%
